By melting point is commonly meant the temperature of the solid-liquid transition. Compound `Cc1cccc(-c2[nH]c(C(C)C)nc2-c2ccc(F)c(-c3ccc(C(=O)O)cc3)c2)n1` [Example 101, 2′-Fluoro-5′-[2-isopropyl-5-(6-methylpyridin-2-yl)-1H-imidazol-4-yl]-1,1′-biphenyl-4-carboxylic acid] displayed a melting point of 160 to 161 °C.
The same measure for `Cc1cccc(-c2[nH]c(C(C)C)nc2-c2ccc(F)c(-c3c[nH]nn3)c2)n1` [Example 106, 2-{4-[4-Fluoro-3-(1H-1,2,3-triazol-4-yl)phenyl]-2-isopropyl-1H-imidazol-5-yl}-6-methylpyridine]: 233 to 235 °C; for `CCn1cc(-c2cc(-c3[nH]c(C(C)C)nc3-c3cccc(C)n3)ccc2F)cn1` [Example 107, 2-{5-[3-(1-Ethyl-1H-pyrazol-4-yl)-4-fluorophenyl]-2-isopropyl-1H-imidazol-4-yl}-6-methylpyridine]: 76 to 78 °C.
The same measure for `Cc1cccc(-c2nc(C(C)C)[nH]c2-c2ccc(F)c(-c3cnn(C(C)C)c3)c2)n1` [Example 108, 2-{5-[4-Fluoro-3-(1-isopropyl-1H-pyrazol-4-yl)phenyl]-2-isopropyl-1H-imidazol-4-yl}-6-methylpyridine]: 84 to 85 °C; for `Cc1cccc(-c2nc(C(C)C)[nH]c2-c2ccc(F)c(-c3ccc(NS(=O)(=O)C4CC4)cc3)c2)n1` [Example 111, N-{2′-Fluoro-5′-[2-isopropyl-4-(6-methylpyridin-2-yl)-1H-imidazol-5-yl]-1,1′-biphenyl-4-yl}cyclopropanesulfonamide]: 119 to 129 °C; for `Cc1cccc(-c2nc(C(C)C)[nH]c2-c2ccc(F)c(-c3ccco3)c2)n1` [Example 113, 2-{5-[4-Fluoro-3-(2-furyl)phenyl]-2-isopropyl-1H-imidazol-4-yl}-6-methylpyridine]: 78 to 90 °C.
The same measure for `Cc1cccc(-c2[nH]c(C(C)C)nc2-c2ccc(F)c(-c3ccc(O)cc3)c2)n1` [Example 114, 2′-Fluoro-5′-[2-isopropyl-5-(6-methylpyridin-2-yl)-1H-imidazol-4-yl]-1,1′-biphenyl-4-ol]: 143 to 145 °C.
The compound `Cc1cccc(-c2[nH]c(C(C)C)nc2-c2ccc(F)c(-c3cc[nH]c3)c2)n1` [Example 123, 2-{4-[4-Fluoro-3-(1H-pyrrol-3-yl)phenyl]-2-isopropyl-1H-imidazol-5-yl}-6-methylpyridine] showed a melting point of 106 to 110 °C.
The same measure for `Cc1cccc(-c2[nH]c(C(C)C)nc2-c2ccc(F)c(-c3ccc(S(C)(=O)=O)cn3)c2)n1` [Example 124, 2-{2-Fluoro-5-[2-isopropyl-5-(6-methylpyridin-2-yl)-1H-imidazol-4-yl]phenyl}-5-(methylsulfonyl)pyridine]: 105 to 108 °C.
Turning to `Cc1cccc(-c2[nH]c(C(C)C)nc2-c2ccc(F)c(-c3ccc([S+](C)[O-])nc3)c2)n1` (stereo not drawn) [Example 128, 5-{2-Fluoro-5-[2-isopropyl-5-(6-methylpyridin-2-yl)-1H-imidazol-4-yl]phenyl}-2-(methylsulfinyl)pyridine], the melting point was 100 to 102 °C.
Consider `Cc1cccc(-c2[nH]c(C(C)C)nc2-c2ccc(F)c(-c3ccc(S(C)(=O)=O)nc3)c2)n1` [Example 129, 5-{2-Fluoro-5-[2-isopropyl-5-(6-methylpyridin-2-yl)-1H-imidazol-4-yl]phenyl}-2-(methylsulfonyl)pyridine], for which the melting point was 102 to 105 °C.
The same measure for `Cc1cccc(-c2[nH]c(C(C)C)nc2-c2ccc(F)c(-c3nc[nH]n3)c2)n1` [Example 133, 2-{4-[4-Fluoro-3-(1H-1,2,4-triazol-3-yl)phenyl]-2-isopropyl-1H-imidazol-5-yl}-6-methylpyridine]: 184 to 186 °C; for `Cc1cccc(-c2[nH]c(C(C)C)nc2-c2ccc(F)c(-c3ncc[nH]3)c2)n1` [Example 134, 2-{4-[4-Fluoro-3-(1H-imidazol-2-yl)phenyl]-2-isopropyl-1H-imidazol-5-yl}-6-methylpyridine]: 201 to 205 °C; for `Cc1cccc(-c2[nH]c(C(C)C)nc2-c2ccc(F)c(-c3cc[nH]n3)c2)n1` [Example 135, 2-{4-[4-Fluoro-3-(1H-pyrazol-3-yl)phenyl]-2-isopropyl-1H-imidazol-5-yl}-6-methylpyridine]: 195 to 198 °C.
The same measure for `Cc1cccc(-c2[nH]c(C(C)C)nc2-c2ccc(F)c(-c3c[nH]c(=O)[nH]3)c2)n1` [Example 140, 4-{2-Fluoro-5-[2-isopropyl-5-(6-methylpyridin-2-yl)-1H-imidazol-4-yl]phenyl}-1,3-dihydro-2H-imidazol-2-one]: 177 to 180 °C; for `Cc1cccc(-c2[nH]c(C(C)C)nc2-c2ccc(F)c(-c3c[nH]c(C)n3)c2)n1` [Example 141, 2-{4-[4-Fluoro-3-(2-methyl-1H-imidazol-4-yl)phenyl]-2-isopropyl-1H-imidazol-5-yl}-6-methylpyridine]: 230 to 234 °C; for `CCc1nc(-c2cc(-c3nc(C(C)C)[nH]c3-c3cccc(C)n3)ccc2F)c[nH]1` [Example 142, 2-{4-[3-(2-Ethyl-1H-imidazol-4-yl)-4-fluorophenyl]-2-isopropyl-1H-imidazol-5-yl}-6-methylpyridine]: 170 to 175 °C.
On to `Cc1cccc(-c2n[nH]cc2-c2ccc(F)c(-c3ccc(S(N)(=O)=O)s3)c2)n1` [Example 143, 5-{2-Fluoro-5-[3-(6-methylpyridin-2-yl)-1H-pyrazol-4-yl]phenyl}thiophene-2-sulfonamide], for which the melting point amounted to 125 °C.
The same measure for `Cc1cccc(-c2n[nH]cc2-c2ccc(F)c(-c3ccc(S(N)(=O)=O)c(F)c3)c2)n1` [Example 147, 2′,3-Difluoro-5′-[3-(6-methylpyridin-2-yl)-1H-pyrazol-4-yl]-1,1′-biphenyl-4-sulfonamide]: 119 to 121 °C; for `Cc1cccc(-c2n[nH]cc2-c2ccc(F)c(-c3ccc(O)c(S(N)(=O)=O)c3)c2)n1` [Example 148, 2′-Fluoro-4-hydroxy-5′-[3-(6-methylpyridin-2-yl)-1H-pyrazol-4-yl]-1,1′-biphenyl-3-sulfonamide]: 104 to 109 °C.
The same measure for `Cc1cccc(-c2n[nH]cc2-c2ccc(F)c(-c3cc(F)c(S(N)(=O)=O)cc3F)c2)n1` [Example 149, 2,2′,5-Trifluoro-5′-[3-(6-methylpyridin-2-yl)-1H-pyrazol-4-yl]-1,1′-biphenyl-4-sulfonamide]: 122 to 125 °C; for `Cc1cccc(-c2n[nH]cc2-c2ccc(F)c(-c3ccc(S(N)(=O)=O)c(C(F)(F)F)c3)c2)n1` [Example 152, 2′-Fluoro-5′-[3-(6-methylpyridin-2-yl)-1H-pyrazol-4-yl]-3-(trifluoromethyl)-1,1′-biphenyl-4-sulfonamide]: 107 to 110 °C; for `Cc1cccc(-c2n[nH]cc2-c2ccc(F)c(-c3ccc(C(C)(O)CF)cn3)c2)n1` (stereo not drawn) [Example 163, 1-Fluoro-2-(6-{2-fluoro-5-[3-(6-methylpyridin-2-yl)-1H-pyrazol-4-yl]phenyl}pyridin-3-yl)propan-2-ol]: 174 to 176 °C.
The same measure for `Cc1cccc(-c2n[nH]cc2-c2ccc(F)c(-c3ccc(C(C)(O)C(F)(F)F)cn3)c2)n1` (stereo not drawn) [Example 164, 1,1,1-Trifluoro-2-(6-{2-fluoro-5-[3-(6-methylpyridin-2-yl)-1H-pyrazol-4-yl]phenyl}pyridin-3-yl)propan-2-ol]: 197 to 198 °C.
In the case of `Cc1cccc(-c2n[nH]cc2-c2ccc(F)c(-c3ccc(C(C)O)cn3)c2)n1` (stereo not drawn) [Example 165, 1-(6-{2-Fluoro-5-[3-(6-methylpyridin-2-yl)-1H-pyrazol-4-yl]phenyl}pyridin-3-yl)ethanol], the melting point lay within 149 to 151 °C.
The same measure for `Cc1cccc(-c2n[nH]cc2-c2ccc(F)c(-c3ccc(OCCO)cn3)c2)n1` [Example 166, 2-[(6-{2-Fluoro-5-[3-(6-methylpyridin-2-yl)-1H-pyrazol-4-yl]phenyl}pyridin-3-yl)oxy]ethanol]: 148 to 151 °C.
The same measure for `Cc1cccc(-c2n[nH]cc2-c2ccc(F)c(-c3ccc(S(=O)(=O)C(F)(F)F)cc3)c2)n1` [Example 168, 2-(4-{6-Fluoro-4′-[(trifluoromethyl)sulfonyl]-1,1′-biphenyl-3-yl}-1H-pyrazol-3-yl)-6-methylpyridine]: 81 to 84 °C; for `Cc1cccc(-c2n[nH]cc2-c2ccc(F)c(-c3ccc(SCCO)cc3)c2)n1` [Example 169, 2-({2′-Fluoro-5′-[3-(6-methylpyridin-2-yl)-1H-pyrazol-4-yl]-1,1′-biphenyl-4-yl}thio)ethanol]: 150 to 152 °C.
The same measure for `Cc1cccc(-c2n[nH]cc2-c2ccc(F)c(-c3ccc(S(=O)(=O)CCO)cc3)c2)n1` [Example 170, 2-({2′-Fluoro-5′-[3-(6-methylpyridin-2-yl)-1H-pyrazol-4-yl]-1,1′-biphenyl-4-yl}sulfonyl)ethanol]: 88 to 90 °C; for `Cc1cccc(-c2n[nH]cc2-c2ccc(F)c(-c3ccc(S(=O)(=O)C(F)F)cc3)c2)n1` [Example 171, 2-(4-{4′-[(Difluoromethyl)sulfonyl]-6-fluoro-1,1′-biphenyl-3-yl}-1H-pyrazol-3-yl)-6-methylpyridine]: 80 to 82 °C.
Regarding `COC(C)(C)c1ccc(-c2cc(-c3c[nH]nc3-c3cccc(C)n3)ccc2F)nc1` [Example 173, 2-{2-Fluoro-5-[3-(6-methylpyridin-2-yl)-1H-pyrazol-4-yl]phenyl}-5-(1-methoxy-1-methylethyl)pyridine], the melting point was in the range of 168 to 169 °C.
The same measure for `CCC(O)(CC)c1ccc(-c2cc(-c3c[nH]nc3-c3cccc(C)n3)ccc2F)nc1` [Example 174, 3-(6-{2-Fluoro-5-[3-(6-methylpyridin-2-yl)-1H-pyrazol-4-yl]phenyl}pyridin-3-yl)pentan-3-ol]: 94 to 95 °C.
The same measure for `Cc1cccc(-c2n[nH]cc2-c2ccc(F)c(-c3cnn(CCN4CCOCC4)c3)c2)n1` [Example 175, 4-[2-(4-{2-Fluoro-5-[3-(6-methylpyridin-2-yl)-1H-pyrazol-4-yl]phenyl}-1H-pyrazol-1-yl)ethyl]morpholine]: 124 °C.
